Results on one compound are retold here after patent publication US7959907B2, “Method of treating cancer by combination therapy using TNF and alpha-galactosylceramide” (VIB VZW, priority 2007, dated 2011).

For assay [1], the system named is B16B16 melanoma. Description: Tumour experiment: subcutaneously growing B16B16 melanoma in C57BL/6 mice, tumor size index. In kind it is in vivo. On the procedure: Female C57BL/6J@RJ mice were purchased from Janvier (Le Genest-Saint-Isle, France). The animals were housed in 14-10 hours light/dark cycles in a temperature-controlled, air-conditioned room, and received food and water ad libitum. The mice were used for the tumour experiment at the age of 8-12 weeks.
The melanin-positive melanoma B16B16 cells (Hart et al., 1979) were cultured in RPMI 1640 (Invitrogen) supplemented with 10% FCS, 50 IU/ml penicillin G, 50 μg/ml streptomycin sulphate, 2 mM L-glutamine and 0.4 mM Na-pyruvate. For tumor inoculation cells were detached from the culture flask by a short EDTA treatment, washed three times in endotoxin-free sterile PBS (Sigma), and resuspended in PBS at 6×10^6 cells/ml.
On day 0, the mice were inoculated with 6×10^5 cells subcutaneously in the back just in front of the hind limb. Treatment was started when the tumor size index (TSI), i.e., the product of the largest perpendicular diameters in cm, reached 0.5 (day 13). Treatment with hTNF (30 μg/injection) or low dose mTNF (0.7 μg/injection) was given daily for 9 or 10 consecutive days via paralesional injection (subcutaneous injection near the site of the tumor, but outside the nodule). Alpha-GalCer (1-2 μg/injection) was injected intraperitoneally. […] TSI and body weight were measured every day prior to injection and every two or three days when treatment was finished.

Assay [2] deals with cancer. The note with it: clinical studies; cited from earlier work.

Take `CCCCCCCCCCCCCCCCCCCCCCCCCC(=O)N[C@@H](CO[C@H]1O[C@H](CO)[C@H](O)[C@H](O)[C@H]1O)[C@H](O)[C@H](O)CCCCCCCCCCCCCC` [alpha-GalCer, (2S 3S, 4R)-1-O-(alfa-D-galactopyranosyl)-N-hexacosanoyl-2-amino-1,3,4-octadecanetriol]: the “effect on tumour growth” value in assay [1] (larger scale experiment, n=7, alpha-GalCer 1 μg/mouse pre-treatment, hTNF 30 μg/injection, low dose mTNF 0.7 μg/injection) is “small inhibiting effect”. Moreover, the “effect on tumor growth” value in assay [1] (pilot experiment, alpha-GalCer 2 μg/mouse i.p., hTNF 30 μg/injection paralesional daily, single agents alone) is “no effect on tumor growth”. Further, the clinical anti-tumour effects result in assay [2] is “no clinical anti-tumour effects were recorded”.
